Measured values published in US7705034B2, “Vinylogous acid derivatives” (Hoffmann-La Roche Inc., priority 2006, dated 2010).

Target: T1, Chymase purified form human skin mast cells (Homo sapiens, UniProt P23946)
T1 construct: Chymase purified form human skin mast cells was obtained from Calbiochem; purchased Calbiochem (Merck Biosciences, San Diego, Calif., USA); host or cells: human skin mast cells (natural source)
T1 sequence (P23946 22-247): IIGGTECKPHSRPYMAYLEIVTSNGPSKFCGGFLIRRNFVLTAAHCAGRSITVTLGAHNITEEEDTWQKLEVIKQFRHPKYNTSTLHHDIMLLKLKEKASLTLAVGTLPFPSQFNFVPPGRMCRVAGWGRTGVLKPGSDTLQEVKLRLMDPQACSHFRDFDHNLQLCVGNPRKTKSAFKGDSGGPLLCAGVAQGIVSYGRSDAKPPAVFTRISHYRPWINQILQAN
Experiment: chymase peptide substrate assay (AAPF-AMC fluorescence)
Format: biochemical
Details: 1 nM chymase, 0.02 mM AAPF-substrate, pH 7.4, room temperature, 30 min pre-incubation
Experimental: The peptide was synthesized with a purity of 95% from Bachem, Bubendorf, Switzerland). Chymase purified form human skin mast cells was obtained from Calbiochem (Merck Biosciences, San Diego, Calif., USA). The assay buffer was 0.15 M NaCl, 0.05M, Tris HCl, 0.05% CHAPS (3-[(3-Cholamidopropyl)-dimethylammonio]-1-propane sulphonate), 0.1 mg/ml Heparin (Heparin sodium, Sigma, porcine intestinal mucosa), 0.02 mM AAPF-substrate, 1 nM Chymase at pH 7.4. The assay was performed in 96-well plates (Packard Optiplate), with a 0.05 ml volume at room temperature. Chymase activity was indicated by the initial rate of increase in fluorescence at 340/440 nm (excitation/emission) from free 7-amino-4-methylcoumarin released from the substrate. Inhibition of the activity by inhibitory compounds was read after 30 min pre-incubation with the chymase at room temperature in assay buffer without AAPF-substrate. The assay was then started by addition of the indicated concentration of AAPF-substrate.

IC50 | Compound
27 nM | CC(=O)NC(C)(C)Cc1c(C(C2=C(O)C(C)(c3ccccc3)C2=O)c2ccccc2)[nH]c2cc(C)ccc12 (stereo not shown) [Example 3, N-(2-{2-[(2-Hydroxy-3-methyl-4-oxo-3-phenyl-cyclobut-1-enyl)-phenyl-methyl]-6-methyl-1H-indol-3-yl}-1,1-dimethyl-ethyl)-acetamide]
34 nM | Cc1c(C(C2=C(O)C(C)(c3ccccc3)C2=O)c2ccccc2)[nH]c2ccccc12 (stereo not shown) [Example 6, 3-Hydroxy-4-methyl-2-[(3-methyl-1H-indol-2-yl)-phenyl-methyl]-4-phenyl-cyclobut-2-enone]
25 nM | CC(=O)NCc1c(C(C2=C(O)C(C)(c3ccccc3)C2=O)c2ccccc2)[nH]c2cc(C)ccc12 (stereo not shown) [Example 10, N-{2-[(2-Hydroxy-3-methyl-4-oxo-3-phenyl-cyclobut-1-enyl)-phenyl-methyl]-6-methyl-1H-indol-3-ylmethyl}-acetamide]
8 nM | Cc1ccc(C2(C)C(=O)C(C(c3ccccc3)c3[nH]c4cc(C)ccc4c3C)=C2O)cc1 (stereo not shown) [Example 13, 2-[(3,6-Dimethyl-1H-indol-2-yl)-phenyl-methyl]-3-hydroxy-4-methyl-4-p-tolyl-cyclobut-2-enone]
